Data: US9695155B2, “Herbicidal substituted pyrimidinyloxy benzene compounds” (E. I. DU PONT DE NEMOURS AND COMPANY, priority 2013, dated 2017)

Experiments:
Assay in all cases: Test E postemergence
smartweed = type: in vivo, ladysthumb smartweed
From the text: (§1) Seeds of plant species selected from corn (Zea mays), soybean (Glycine max), velvetleaf (Abutilon theophrasti), lambsquarters (Chenopodium album), wild poinsettia (Euphorbia heterophylla), palmer pigweed (Amaranthus palmeri), waterhemp (common waterhemp, Amaranthus rudis), surinam grass (Brachiaria decumbens), large (Lg) crabgrass (Digitaria sanguinalis), Brazilian crabgrass (Digitaria horizontalis), fall panicum (Panicum dichotomiflorum), giant foxtail (Setaria faberii), green foxtail (Setaria viridis), goosegrass (Eleusine indica), johnsongrass (Sorghum halepense), ragweed (common ragweed, Ambrosia elatior), barnyardgrass (Echinochloa crus-galli), sandbur (southern sandbur, Cenchrus echinatus), arrowleaf sida (Sida rhombifolia), Italian ryegrass (Lolium multiflorum), dayflower (Virginia (VA) dayflower, Commelina virginica), field bindweed (Convolvulus arvensis), morningglory (Ipomoea coccinea), nightshade (eastern black nightshade, Solanum ptycanthum), kochia (Kochia scoparia), yellow nutsedge (Cyperus esculentus), cocklebur (common cocklebur, Xanthium strumarium), smartweed (ladysthumb smartweed, and hairy beggarticks (Bidens pilosa), were planted into a silt loam soil and treated preemergence with test chemicals formulated in a non-phytotoxic solvent mixture which included a surfactant.
(§2) At the same time, plants from these crop and weed species and also horseweed (Canada horseweed, Conyza canadensis), waterhemp_RES1, (ALS & Triazine resistant common waterhemp, Amaranthus rudis), and waterhemp_RES2, (ALS & HPPD resistant common waterhemp, Amaranthus rudis) were planted in pots containing Redi-Earth® planting medium (Scotts Company, 14111 Scottslawn Road, Marysville, Ohio 43041) comprising spaghnum peat moss, vermiculite, wetting agent and starter nutrients were treated with postemergence applications of test chemicals formulated in the same manner. Plants ranged in height from 2 to 18 cm for postemergence treatments (1- to 4-leaf stage). Treated plants and controls were maintained in a greenhouse for 14 to 21 days, after which time all species were compared to controls and visually evaluated. Plant response ratings, summarized in Table E, are based on a scale of 0 to 100 where 0 is no effect and 100 is complete control. A dash (-) response means no test result.

[1] = test system: waterhemp_RES1 (ALS & Triazine resistant common waterhemp); type: in vivo, Amaranthus rudis
In short: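 Test chemicals formulated in a non-phytotoxic solvent mixture containing a surfactant were applied preemergence to seeds in silt loam soil or postemergence to plants at the 1- to 4-leaf stage in potting mix. After 14 to 21 days in a greenhouse, injury was visually rated against controls on a 0-100 scale (0 = no effect, 100 = complete control).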

palmer pigweed = type: in vivo, Amaranthus palmeri; settings: for pest or weed control at 31 g/ha / pest or weed control at 62 g/ha / pest or weed control at 125 g/ha / pest or weed control at 250 g/ha / pest or weed control at 16 g/ha: post-emergence, read-out: Plant response rating, Pigweed, Palmer; for pest or weed control at 250 g/ha: 250 g ai/ha
From the text: as §1, §2

[2] = Postemergence, 31 g ai/ha, scale 0 to 100
[3] = Postemergence, 62 g ai/ha, scale 0 to 100
[4] = Postemergence, 125 g ai/ha, scale 0 to 100
[5] = Postemergence, 250 g ai/ha, scale 0 to 100
[6] = postemergence, 16 g ai/ha, scale 0 to 100, 0 no effect, 100 complete control
[7] = postemergence, 8 g ai/ha, scale 0 to 100, 0 no effect, 100 complete control

SMILES	Plant response rating, Smartweed (smartweed; [3])	Plant response rating, Smartweed (smartweed; [4])	Plant response rating, Smartweed (smartweed; [5])	Plant response rating, Smartweed (smartweed; [6])	Plant response rating, Waterhemp_RES1 [1, 2]	Plant response rating, Waterhemp_RES1 [1, 3]	Plant response rating, Waterhemp_RES1 [1, 4]	Plant response rating, Waterhemp_RES1 [1, 5]	Plant response rating, Waterhemp_RES1 [1, 6]	pest or weed control at 31 g/ha (palmer pigweed; [2])	pest or weed control at 62 g/ha (palmer pigweed; [3])	pest or weed control at 125 g/ha (palmer pigweed; [4])	pest or weed control at 250 g/ha (palmer pigweed; Postemergence, scale 0 to 100)	pest or weed control at 16 g/ha (palmer pigweed; [6])	also measured
N#Cc1cccc(Oc2ncc(Cl)cn2)c1-n1cc(C(F)(F)F)cn1 [Compound 58, 3-[(5-chloro-2-pyrimidinyl)oxy]-2-[4-(trifluoromethyl)-1H-pyrazol-1-yl]benzonitrile]	85	100	100	50	80	95	95	100	80	95%	100%	100%	100%	90%	Plant response rating, Smartweed (smartweed; [2]): 65
N#Cc1cccc(Oc2ncc(Br)cn2)c1-n1cc(C(F)(F)F)cn1 [Compound 59, 3-[(5-bromo-2-pyrimidinyl)oxy]-2-[4-(trifluoromethyl)-1H-pyrazol-1-yl]benzonitrile]	80	100	100	55	80	90	95	100	70	80%	85%	100%	100%	75%	–
Clc1cnc(Oc2cccc(Br)c2-n2cc(Br)cn2)nc1 [Compound 65]	–	–	–	–	85	90	98	–	70	–	–	–	–	–	Plant response rating, Waterhemp_RES1 [1, 7]: 65; Plant response rating, Pigweed, Palmer (palmer pigweed; [2]): 50; Plant response rating, Pigweed, Palmer (palmer pigweed; [3]): 50; Plant response rating, Pigweed, Palmer (palmer pigweed; [4]): 60; Plant response rating, Pigweed, Palmer (palmer pigweed; [7]): 10; Plant response rating, Pigweed, Palmer (palmer pigweed; [6]): 20
